According to the supplement of paper PMC10627819:
In brackets after ≈: the same amount, converted by molar mass.

How the values were obtained:
B. subtilis 168 [1] = test: fitness (endpoint OD595 vs no drug) (fraction); higher = more growth
In short: (§1)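 In 384-well plates at 37 °C, cultures began at OD595 0.01 in 30 µl, with 55 µl used for S. pneumoniae. OD595 readings every 30 min for 14 h were corrected by the first reading. Fitness divides the stationary-phase transition optical density by the robust mean of no-drug control wells. The result is capped at 1.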

S. aureus DSM 20231 [2] = test: as above
In short: as §1

S. aureus Newman [3] = test: as above
In short: as §1

S. pneumoniae D39V [4] = test: as above
In short: as §1

B. subtilis 168 [5] = test: Bliss interaction score (quartile over a dose matrix) (fitness difference); higher = more antagonism (negative = synergy)
In short: (§2)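 OD595 was read at entry into stationary phase and expressed relative to the robust mean of the no-drug wells on the same plate, capped at 1. The resulting ratio is the fitness value. The Bliss score, observed fitness minus product-based expected fitness with single-drug fitness inferred from combinations, is summarised by quartiles over technical, biological and donor/recipient replicates.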

S. aureus DSM 20231 [6] = test: as above
In short: as §2

S. aureus Newman [7] = test: as above
In short: as §2

S. pneumoniae D39V [8] = test: as above
In short: as §2

B. subtilis 168 [9] = test system: B. subtilis 168
S. aureus DSM 20231 [10] = test system: S. aureus DSM 20231
S. aureus Newman [11] = test system: S. aureus Newman
S. pneumoniae D39V [12] = test system: S. pneumoniae D39V
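Throughout, for Bliss interaction score (quartile over a dose matrix): first quartile when negative (synergy) and third quartile when positive (antagonism).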

COc1cccc2c1C(=O)c1c(O)c3c(c(O)c1C2=O)C[C@@](O)(C(=O)CO)C[C@@H]3O[C@H]1C[C@H](N)[C@H](O)[C@H](C)O1 [Doxorubicin] + CN1C2=CC=CC=C2N=C3C1=CC=CC3=O [Pyocyanin]
Details | fitness
B. subtilis 168 [1], first compound 0.625 µg/mL, partner 1.25 µg/mL | 0.888
B. subtilis 168 [1], first compound 0.625 µg/mL, partner 2.5 µg/mL | 0.878
B. subtilis 168 [1], first compound 0.625 µg/mL, partner 5 µg/mL | 0.684
B. subtilis 168 [1], first compound 1.25 µg/mL, partner 1.25 µg/mL | 0.853
B. subtilis 168 [1], first compound 1.25 µg/mL, partner 2.5 µg/mL | 0.841
B. subtilis 168 [1], first compound 1.25 µg/mL, partner 5 µg/mL | 0.625
B. subtilis 168 [1], first compound 2.5 µg/mL, partner 1.25 µg/mL | 0.631
B. subtilis 168 [1], first compound 2.5 µg/mL, partner 2.5 µg/mL | 0.54
S. aureus DSM 20231 [2], first compound 0.625 µg/mL, partner 1.25 µg/mL | 0.863
S. aureus DSM 20231 [2], first compound 0.625 µg/mL, partner 2.5 µg/mL | 0.827
S. aureus DSM 20231 [2], first compound 0.625 µg/mL, partner 5 µg/mL | 0.578
S. aureus DSM 20231 [2], first compound 1.25 µg/mL, partner 1.25 µg/mL | 0.857
S. aureus DSM 20231 [2], first compound 1.25 µg/mL, partner 2.5 µg/mL | 0.865
S. aureus DSM 20231 [2], first compound 1.25 µg/mL, partner 5 µg/mL | 0.641
S. aureus DSM 20231 [2], first compound 2.5 µg/mL, partner 1.25 µg/mL | 0.744
S. aureus DSM 20231 [2], first compound 2.5 µg/mL, partner 2.5 µg/mL | 0.699
S. aureus DSM 20231 [2], first compound 2.5 µg/mL, partner 5 µg/mL | 0.487
S. aureus Newman [3], first compound 0.625 µg/mL, partner 1.25 µg/mL | 0.733
S. aureus Newman [3], first compound 0.625 µg/mL, partner 2.5 µg/mL | 0.687
S. aureus Newman [3], first compound 0.625 µg/mL, partner 5 µg/mL | 0.438
S. aureus Newman [3], first compound 1.25 µg/mL, partner 1.25 µg/mL | 0.716
S. aureus Newman [3], first compound 1.25 µg/mL, partner 2.5 µg/mL | 0.639
S. aureus Newman [3], first compound 2.5 µg/mL, partner 1.25 µg/mL | 0.674
S. aureus Newman [3], first compound 2.5 µg/mL, partner 2.5 µg/mL | 0.584
S. pneumoniae D39V [4], first compound 0.25 µg/mL, partner 0.325 µg/mL | 0.986
S. pneumoniae D39V [4], first compound 0.25 µg/mL, partner 0.65 µg/mL | 0.92
S. pneumoniae D39V [4], first compound 0.25 µg/mL, partner 1.3 µg/mL | 0.766
S. pneumoniae D39V [4], first compound 0.5 µg/mL, partner 0.325 µg/mL | ≥ 1
S. pneumoniae D39V [4], first compound 0.5 µg/mL, partner 0.65 µg/mL | 0.938
S. pneumoniae D39V [4], first compound 0.5 µg/mL, partner 1.3 µg/mL | 0.773
S. pneumoniae D39V [4], first compound 1 µg/mL, partner 0.325 µg/mL | 0.942
S. pneumoniae D39V [4], first compound 1 µg/mL, partner 0.65 µg/mL | 0.868
S. pneumoniae D39V [4], first compound 1 µg/mL, partner 1.3 µg/mL | 0.729

Details | Bliss interaction score
B. subtilis 168 [5] | 0.0456
S. aureus DSM 20231 [6] | -0.0672
S. aureus Newman [7] | -0.0556
S. pneumoniae D39V [8] | 0.0322

CO/N=C(\C(=O)N[C@@H]1C(=O)N2C(C(=O)O)=C(COC(N)=O)CS[C@H]12)c1ccco1 [Cefuroxime]
Details | MIC [µg/mL]
B. subtilis 168 [9] | 2 (≈ 4.71 µM)
S. aureus DSM 20231 [10] | 0.25 (≈ 0.589 µM)
S. aureus Newman [11] | 0.25 (≈ 0.589 µM)
S. pneumoniae D39V [12] | 0.25 (≈ 0.589 µM)

B. subtilis 168 [1]
Details | fitness
0.195 µg/mL | 0.319
0.39 µg/mL | 0.26
0.78 µg/mL | 0.212
1.562 µg/mL | 0.332
3.125 µg/mL | 0.264
6.25 µg/mL | 0.227

COc1cccc2c1C(=O)c1c(O)c3c(c(O)c1C2=O)C[C@@](O)(C(=O)CO)C[C@@H]3O[C@H]1C[C@H](N)[C@H](O)[C@H](C)O1 [Doxorubicin] + COc1c(N2C[C@@H]3CCCN[C@@H]3C2)c(F)cc2c(=O)c(C(=O)O)cn(C3CC3)c12 [Moxifloxacin]
fitness
Details | first compound 0.25 µg/mL | first compound 0.5 µg/mL | first compound 0.625 µg/mL | first compound 1 µg/mL | first compound 1.25 µg/mL | first compound 2.5 µg/mL
B. subtilis 168 [1], partner 0.0312 µg/mL | – | – | 0.0436 | – | 0.0321 | 0.0239
B. subtilis 168 [1], partner 0.0625 µg/mL | – | – | 0.0396 | – | 0.0329 | 0.0327
B. subtilis 168 [1], partner 0.125 µg/mL | – | – | 0.0249 | – | 0.0462 | 0.026
B. subtilis 168 [1], partner 2 µg/mL | – | – | 0.0338 | – | 0.0341 | 0.0223
B. subtilis 168 [1], partner 4 µg/mL | – | – | 0.0299 | – | 0.0351 | 0.0369
B. subtilis 168 [1], partner 8 µg/mL | – | – | 0.0347 | – | 0.0318 | 0.0314
S. aureus DSM 20231 [2], partner 0.0075 µg/mL | – | – | 0.751 | – | 0.78 | 0.735
S. aureus DSM 20231 [2], partner 0.015 µg/mL | – | – | 0.759 | – | 0.764 | 0.706
S. aureus DSM 20231 [2], partner 0.03 µg/mL | – | – | 0.623 | – | 0.631 | 0.618
S. aureus Newman [3], partner 0.0075 µg/mL | – | – | 0.756 | – | 0.722 | 0.659
S. aureus Newman [3], partner 0.015 µg/mL | – | – | 0.66 | – | 0.667 | 0.611
S. pneumoniae D39V [4], partner 0.005 µg/mL | 0.916 | 0.919 | – | 0.812 | – | –
S. pneumoniae D39V [4], partner 0.01 µg/mL | 0.955 | 0.911 | – | 0.857 | – | –
S. pneumoniae D39V [4], partner 0.02 µg/mL | 0.894 | 0.822 | – | 0.779 | – | –
S. pneumoniae D39V [4], partner 0.0312 µg/mL | 0.0684 | 0.0433 | – | 0.0394 | – | –
S. pneumoniae D39V [4], partner 0.0625 µg/mL | 0.0549 | 0.0614 | – | 0.0753 | – | –
S. pneumoniae D39V [4], partner 0.125 µg/mL | 0.0583 | 0.0523 | – | 0.0416 | – | –

fitness, S. aureus DSM 20231 [2], one replicate
Details | first compound 0.625 µg/mL | first compound 1.25 µg/mL | first compound 2.5 µg/mL
partner 0.06 µg/mL | 0.664 | 0.655 | 0.638
partner 0.12 µg/mL | 0.575 | 0.531 | 0.537

Details | Bliss interaction score
B. subtilis 168 [5] | -0.0247
S. aureus DSM 20231 [6] | 0.0448
S. aureus Newman [7] | 0.177
S. pneumoniae D39V [8] | -0.0668
